Source: PubChem BioAssay (NCI)
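These data come from cells grown in 96-well plates and exposed to compound for 48 hours at five concentrations. Definition used: TGI = concentration required for complete inhibition of growth.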

What was measured:
Assay in all cases: growth of human tumour cells (NCI), 48 h
DU-145 prostate = test system: DU-145 prostate
SK-MEL-28 melanoma = test system: SK-MEL-28 melanoma
OVCAR-3 ovarian = test system: OVCAR-3 ovarian
HOP-92 NSCLC = test system: HOP-92 NSCLC
SNB-19 CNS = test system: SNB-19 CNS
SF-268 CNS = test system: SF-268 CNS
UO-31 renal = test system: UO-31 renal
CAKI-1 renal = test system: CAKI-1 renal
T-47D breast = test system: T-47D breast
RPMI-8226 leukemia = test system: RPMI-8226 leukemia
SF-295 CNS = test system: SF-295 CNS

| SMILES | TGI (DU-145 prostate) [µM] | TGI (SK-MEL-28 melanoma) [µM] | TGI (OVCAR-3 ovarian) [µM] | TGI (HOP-92 NSCLC) [µM] | TGI (SNB-19 CNS) [µM] | TGI (SF-268 CNS) [µM] | TGI (UO-31 renal) [µM] | TGI (CAKI-1 renal) [µM] | TGI (T-47D breast) [µM] | TGI (RPMI-8226 leukemia) [µM] | TGI (SF-295 CNS) [µM] |
| --- | --- | --- | --- | --- | --- | --- | --- | --- | --- | --- | --- |
| CN1C(C)(C)CC(=O)C(Br)C1(C)C (stereo not given) | > 100 | > 100 | > 100 | > 100 | > 100 | > 100 | > 100 | > 100 | > 100 | > 100 | > 100 |
| CCCCCCCCCCCCCCCC(=O)Nc1ccn(C2CCC(COP(=O)(O)OCC3OC(n4cc(F)c(=O)[nH]c4=O)CC3OC(C)=O)O2)c(=O)n1 (stereo not given) | > 100 | 43.8 | 59 | 66.3 | 35.2 | > 82.8 | 28.9 | > 42.5 | > 66.5 | 52.9 | 29.6 |
| CC[C@@H]1CC[C@@H]2[C@H](CC[C@]3(C)[C@@H](OC(C)=O)CC[C@@H]23)[C@H]1C(=O)OC | 86.1 | > 100 | 34.4 | 37.3 | 72.4 | 81.1 | > 100 | > 100 | 66.8 | 46.5 | 46.6 |
| CC(C)CC(NC=O)C(=O)NC(Cc1ccccc1)NC(=O)CNC(=O)C(C)NC(=O)C(N)Cc1ccc(O)cc1 (stereo not given) | > 100 | > 100 | > 100 | > 100 | > 100 | > 100 | > 100 | > 100 | > 100 | > 100 | > 100 |
| Cc1ccc(S(=O)(=O)ON2C(=O)c3c(N)c(C#N)c(-c4ccccc4)c(-c4ccccc4)c3C2=O)cc1 | 67.1 | 29.4 | 27.2 | 49.4 | > 100 | > 100 | – | 29.8 | 38.1 | 89.6 | 92.8 |
| COc1ccccc1N1C(=O)CSC1c1cc(OC)c(OC)c(OC)c1 (stereo not given) | > 100 | > 100 | > 100 | > 100 | > 20.8 | > 100 | > 100 | > 100 | > 38.3 | > 100 | > 100 |
| C=CC(OC(=O)C(C)C)c1ccc(OC(=O)C(C)C)cc1 (stereo not given) | > 100 | 23.8 | 31.1 | 31.4 | 28.2 | 62.2 | 30.9 | 10.2 | 69.8 | 11.7 | 29.1 |
| COC(=O)c1ccc(C)cc1C1CN=NC12Cc1cc(C)ccc1C2=O (stereo not given) | 97.6 | > 100 | > 80.1 | 84.7 | > 100 | > 100 | > 85.1 | 97.3 | > 100 | 66.2 | > 77.2 |
| O=C(NCCc1ccccc1)c1cc(/C=C/c2cc(O)ccc2O)ccc1O | 28.1 | 10.4 | 8.11 | 4.35 | 19.6 | 10.2 | 2.86 | 13.2 | 3.86 | 7.21 | 35.2 |
| CC(C)COP(C)(=O)C(N)(C(F)(F)F)C(F)(F)F (stereo not given) | > 100 | > 100 | > 100 | > 100 | – | > 100 | > 100 | > 100 | > 100 | > 100 | > 100 |
| O=C(/C=C/c1ccc(O)c(O)c1)NC(COC(=O)/C=C/c1ccc(O)c(O)c1)C(=O)O (stereo not given) | > 100 | > 100 | > 100 | > 100 | > 100 | > 100 | > 100 | > 100 | > 100 | > 100 | > 100 |
| Nc1nc(N)c2ncn(-c3ccccc3)c2n1 | > 100 | > 100 | > 100 | > 100 | > 100 | > 100 | > 100 | > 100 | > 100 | > 100 | > 100 |
| O=C1Nc2ccccc2/C1=C\c1c(-c2ccccc2)nc2n1CCS2 | 40.7 | > 100 | 41.8 | > 100 | 91 | 86.9 | 80.6 | > 100 | 76.8 | 65.8 | 48.6 |
| O=C1CCN2C(=N1)Sc1ccccc12 | > 100 | > 100 | > 100 | > 100 | > 100 | > 100 | – | > 100 | > 100 | > 100 | > 100 |
| CC(C)OC(=O)NNc1cccc(Cl)c1 | > 100 | > 100 | > 100 | > 100 | > 100 | > 100 | > 100 | > 100 | > 100 | > 100 | > 100 |
| CC(=O)O[C@H]1CC[C@@]2(C)C(=CC[C@@H]3[C@@H]2CC[C@](C)(c2nnc(C)o2)[C@H]3CC#N)C1 | > 100 | – | > 100 | > 100 | > 100 | > 100 | > 100 | > 100 | > 100 | > 100 | > 100 |
| O=C(c1ccccc1)C(Nc1ccc2ccccc2c1)c1ccccc1 (stereo not given) | > 100 | > 100 | 78.2 | > 100 | > 100 | > 100 | > 100 | > 100 | > 100 | 33.7 | > 100 |
| Cc1ccc(SCC(CF)OC(C)n2cnc3c(Cl)nc(N)nc32)cc1 (stereo not given) | > 100 | > 100 | > 100 | > 100 | > 100 | > 100 | > 100 | > 100 | > 100 | > 100 | > 100 |
| O=C1CCCCC1C(O)(C(F)(F)F)C(F)(F)Cl (stereo not given) | > 10 | > 10 | > 10 | > 10 | > 10 | > 10 | – | > 10 | > 10 | > 10 | > 10 |
| CCCCCCCC(CC(=O)NC(CO)C(=O)NC(CO)CC(C)C)OC(=O)CC(CCCCCCC)OC(=O)CC(CCCCCCC)OC1OC(C)C(O)C(OC2OC(C)C(O)C(O)C2O)C1O (stereo not given) | 25.3 | 21.2 | 26.9 | 24.8 | 26.1 | 23.2 | 30.5 | 33.2 | 26.6 | 8.96 | 27.1 |
